This is an account of results in article PMC9629855, “Development of ASIC1a ligand-gated ion channel drug screening assays across multiple automated patch clamp platforms” (Frontiers in Molecular Neuroscience, 2022).

SMILES strings stand for the structures. “And” between values parts separate entries of the source, which are not always exact repeats. Identical values can stand only once. Like-named read-outs stand apart in the source and are kept apart here.

The target in assay [1] is T1, hASIC1a (Homo sapiens, UniProt P78348).
T1 sequence (P78348 1-528): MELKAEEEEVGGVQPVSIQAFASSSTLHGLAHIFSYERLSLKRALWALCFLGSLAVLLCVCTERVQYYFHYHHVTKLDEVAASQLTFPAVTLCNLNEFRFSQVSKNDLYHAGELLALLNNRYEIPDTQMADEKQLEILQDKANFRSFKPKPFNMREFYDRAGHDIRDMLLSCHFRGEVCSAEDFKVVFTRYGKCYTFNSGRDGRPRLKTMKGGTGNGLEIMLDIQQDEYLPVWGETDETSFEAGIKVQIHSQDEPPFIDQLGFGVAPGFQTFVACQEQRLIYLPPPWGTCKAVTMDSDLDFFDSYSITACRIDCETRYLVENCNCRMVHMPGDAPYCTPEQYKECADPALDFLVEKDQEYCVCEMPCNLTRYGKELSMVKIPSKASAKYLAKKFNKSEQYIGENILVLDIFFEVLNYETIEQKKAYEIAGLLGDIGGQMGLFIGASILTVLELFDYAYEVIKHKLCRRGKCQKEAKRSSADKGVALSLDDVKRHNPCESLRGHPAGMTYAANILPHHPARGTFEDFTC
Also on record: host or cells: CHO. As to conditions: ref Leng et al., 2016; read-out: Literature IC50; cited from earlier work.

In assay [2] the target is T1, hASIC1a. The assay can be described thus: Patchliner APC, CHO ASIC1a currents, stacked tip application, voltage clamp. The format is cell-based. Also on record: host or cells: CHO. As to conditions: cumulative application, pH 6.5, stacked tip, single hole. Here is the method:
CHO cells were cultured according to vendor instructions (B-SYS GmbH) and harvested using optimized protocols before transfer of the cell suspension to the automated cell hotel on the Patchliner where cells are stored at RT (∼20°C) in a small Teflon vessel and repetitively aspirated every 30 s using a 1 ml plastic pipette tip to prevent aggregation. The cell hotel parameters can be adjusted (interval, speed and volume of aspiration) depending on the cell type to maintain viability for 2–3 h. Cell sealing was conducted in the presence of elevated divalent cations and lowered Na^+, which were washed off after whole-cell access was achieved and replaced with external solution while cells were voltage clamped at a holding potential of −60 mV. […]
Concentration-response xC50 curves from Patchliner and QPatch 48 experiments were calculated by plotting %inhibition (antagonists) or activation (pH) data against concentration in Prism software (GraphPad), using the variable sigmoidal dose-response function to fit the Hill equation with theoretical minimum block of 0% and maximum block of 100% and a free constant for Hill slope. […]

Assay [3] concerns endogenous proton-activated currents in HEK cells. In words: cells. The format is cell-based, human. To be noted: for IC50: pH 6.5 activation, QPatch 48, read-out: mean IC50. Here is the method:
CHO hASIC1a cells were cultured according to vendor instructions (B-SYS GmbH) and HEK cells using standard in-house methods. Both cell lines were harvested using optimized protocols and re-suspended in serum-free media (Gibco CHO-S-SFM from Thermo Fisher Scientific for CHO cells, and Ex-Cell 302 from Merck Sigma-Aldrich for HEK cells) to obtain a suspension of cells with smooth membranes and little debris, before transfer to the automated cell hotel consisting of a 60 ml plastic container (Sophion SB2050) and a magnetic stir bar to prevent cell clumping. An aliquot of cells is then aspirated into a 1 ml microcentrifuge tube and spun down (typically 150 g for 2.5 min) and the supernatant discarded before a user-defined volume of external solution is added by the robot and the cells re-suspended to achieve the desired final cell suspension density before application to primed QPlates. Cell capture, sealing and whole-cell access was achieved using optimized QPatch protocols before currents were recorded using a holding potential of −60 mV. […] Cells were washed three times with external pH 7.3 solution (5 μl) between applications of activating acidic solution to establish a stable ASIC1a current baseline. […] Each concentration of reference compound was applied to each cell before (i.e., during each pH 7.3 application period) and during each pH stimulus (IC50 mode). Thus, each concentration of test compound was pre-incubated with cells for at least 2 min before, and then during each acidic solution challenge, before wash-off in a neutral pH 7.3 solution that contained the next concentration of the same compound. Cells were allowed at least 2 min between applications of acidic solution to enable ASIC1a receptors to recover from desensitization.
Concentration-response xC50 curves from Patchliner and QPatch 48 experiments were calculated by plotting %inhibition (antagonists) or activation (pH) data against concentration in Prism software (GraphPad), using the variable sigmoidal dose-response function to fit the Hill equation with theoretical minimum block of 0% and maximum block of 100% and a free constant for Hill slope. Inward current amplitudes were compared to the response to a control pH application (typically pH 6.5) prior to antagonist application or excitation by solutions of different pH to enable calculation of %inhibition or %activation for each cell.
To quickly confirm a previous publication that HEK cells express endogenous ASIC1a receptor channels and assess the suitability of this cell system for drug discovery screening on APC platforms, we utilized the medium throughput QPatch 48 device. The QPatch uses 48 well microfluidic planar borosilicate chips and coated titanium pipette tips to make whole-cell recordings and sequentially apply small liquid volumes to enable rapid activation followed by slower deactivation (wash-off) of ligand-gated ionotropic responses. HEK cells were voltage-clamped at −60 mV and maintained in external solution at pH 7.4 to avoid steady-state desensitization of ASIC1 receptor channels. Cells were stimulated by external solutions with pH values ranging between 7.0 and 5.5 that evoked rapidly activating inward currents, followed by wash-off in pH 7.4 solution.

The test system of assay [4] is endogenous pH-gated responses in HEK cells. Also on record: method as in Gunthorpe et al. (2001). As to conditions: manual patch clamp, ref Gunthorpe et al. (2001), read-out: affinity for inhibition of endogenous pH-gated responses; cited from earlier work.
Another assay deals with ENaC channels. Also on record: method as in Canessa et al., 1994. To be noted: ref Canessa et al., 1994; cited from earlier work.

Turning to `NC(=NCc1ccccc1)NC(=O)c1nc(Cl)c(N)nc1N` [Benzamil], the IC50 was 3500 nM at hASIC1a [1] and 3650 nM against hASIC1a [2].
Regarding `N=C(N)NC(=O)c1nc(Cl)c(N)nc1N` [Amiloride], the IC50 in assay [3] (HEK cells) was 2000 to 3000 nM and 2800 nM; in assay [3] (Homo sapiens, HEK293, pH 6.5, HEK cells), 2820 nM; in assay [4], 2200 nM. In addition, the inhibition at 0.3 µM in assay [3] (Homo sapiens, HEK293, read-out: inhibition of pH-evoked current (some cells)) was approximately 25%. Also, the “sensitivity of ENaC channels to inhibition” value in the assay on ENaC channels was 100 nM.
